Like-named read-outs stand apart in the source and are kept apart here.
Tests used:
[1] = Kokai Sho 60-132928, Table 2; cited from earlier work
[2] = tested on: Rabbit platelet aggregation induced by PAF; assay: Rabbit platelet aggregation inhibitory activity (PAF-induced); format: cell-based, rabbit (New Zealand white); details: Oryctolagus cuniculus, read-out: Rabbit Platelet Aggregation Inhibitory activity IC50
Experimental: To 0.9 volume of blood collected from jugular vein of a New Zealand white male rabbit weighing from 2.5 to 3.5 kg was added 0.1 volume of 3.8% aqueous sodium citrate, and the mixture was centrifuged at 110 xg for 15 minutes to give PRP ([…]). Assay of platelet aggregation induced by PAF was effected using 4 channels aggregometer (Manufacturer: Nicoh Bioscience Co.) according to Bohn et al, Turbidimetry [J. Physiology, Vol. 168, p.178, 1963]. […] The final concentration of PAF in the reaction mixture was adjusted to 10^-10 M.

[3] = tested on: mouse death due to shock induced by PAF; assay: Activity to mouse death due to shock induced by PAF; format: in vivo; details: male ICR mouse; oral 1 hour prior to i.v. 100 μg/kg PAF; survival at 24 hours
Experimental: Test was effected according to Young et al. method, Prostaglandins, Vol. 30, p.545, 1985. Lethal test was effected by treating starved male ICR mouse weighing from 25 g to 30 g with PAF without anesthesia. Test Compound was orally administered 1 hour prior to tail intravenous administration of 100 μg/kg of PAF. Survival rate of the test animal was examined 24 hours after intravenous administration of PAF.

[4] = tested on: contraction of the respiratory tract due to PAF; assay: Activity to contraction of the respiratory tract of guinea pig due to PAF; format: in vivo, guinea pig (Hartley); details: Cavia porcellus, read-out: Activity to Contraction of the Respiratory Tract of Guinea Pig due to PAF ED50
Experimental: Hartley male guinea pigs weighing from 350 g to 500 g were anesthetized by intraperitoneal administration of 50 mg/kg of sodium pentobarbital. Contraction of the respiratory tract was measured by inserting a cannula into trachea and measuring under artificial ventilation according to Conzet et al, Arch. […] 71. Test compound was orally administered 1 hour prior to intravenous administration of 0.3 μg/kg of PAF.

Acute toxicity = details: in vivo; male and female SD (CD) rat; oral, 0.5% aqueous CMC-Na suspension; observed 14 days
[5] = tested on: thromboxane synthetase enzyme; details: Kokai Sho 63-316778, Table 1; cited from earlier work
[6] = rabbit PRP, PAF final concentration 10^-10 M
[7] = Hartley male guinea pig, oral 1 hour prior to i.v. 0.3 μg/kg PAF

SMILES | ED50 [3] | IC50 [2, 6] | also measured
CN1C(=O)c2ccc(Oc3ccc(C(F)(F)F)cc3Cl)cc2C1=O | – | – | herbicidal activity [1]: shows herbicidal activity
Cc1nnc2n1-c1sc(CCC(=O)N3CCOCC3)cc1C(c1ccccc1Cl)=NC2 [WEB2086, reference compound] | 1 mg/kg | – | IC50 [2]: 40 nM; ED50 ([4]; po, 1 h): 0.15 mg/kg
O=c1c2cc(Oc3ccc(Cl)cc3)ccc2nnn1Cc1cccnc1 [compound 2, 6-(4-chlorophenoxy)-3-(3-pyridylmethyl)-1,2,3-benzotriazin-4 (3H)-one] | 2.1 mg/kg | 26 nM | ED50 [4, 7]: 0.15 mg/kg; LD50 at 336 h (Acute toxicity): > 2000 mg/kg
O=C1c2ccc(Oc3ccc(Cl)cc3)cc2C(=O)N1Cc1cccnc1 [compound 25, 5-(4-chlorophenoxy)-2-(3-pyridylmethyl)-1H-isoindole-1,3 (2H)-dione] | 1.3 mg/kg | 10 nM | ED50 [4, 7]: 0.14 mg/kg; LD50 at 336 h (Acute toxicity): > 2000 mg/kg
O=C(c1ccc(Cl)cc1)c1ccc2c(c1)C(=O)N(Cc1cccnc1)C2=O [compound 45, 5-(4-chlorobenzoyl)-2-(3-pyridylmethyl)-1H-isoindole-1,3 (2H)-dione] | 0.6 mg/kg | 19 nM | –
O=C1c2ccc(-c3cccc4ccccc34)cc2C(=O)N1Cc1cccnc1 [compound 50, 5-(1-naphthyl)-2-(3-pyridylmethyl)-1H-isoindole-1,3 (2H)-dione] | 0.32 mg/kg | 24 nM | –
O=C1c2ccc(N(c3ccc(Cl)cc3)c3ccc(Cl)cc3)cc2C(=O)N1Cc1cccnc1 [compound 60, 5-[N,N-bis (4-chlorophenyl)amino]-2-(3-pyridylmethyl)-1H-isoindole-1,3(2H)-dione] | 0.019 mg/kg | 2.6 nM | ED50 [4, 7]: 0.019 mg/kg; LD50 at 336 h (Acute toxicity): > 2000 mg/kg
N#Cc1ccc(N(c2ccc(C#N)cc2)c2ccc3c(c2)C(=O)N(Cc2cccnc2)C3=O)cc1 [compound 63, 5-[N,N-bis (4-cyanophenyl)amino]-2-(3-pyridylmethyl)-1H-isoindole-1,3 (2H)-dione] | 0.007 mg/kg | 1.7 nM | ED50 [4, 7]: 0.006 mg/kg; LD50 at 336 h (Acute toxicity): > 2000 mg/kg
O=C1c2ccc(C(c3ccc(Cl)cc3)c3ccc(Cl)cc3)cc2C(=O)N1Cc1cccnc1 [compound 68, 5-[bis (4-chlorophenyl)methyl]-2-(3-pyridylmethyl)-1H-isoindole-1,3 (2H)-dione] | – | 1.8 nM | –
O=C1c2cccc(Oc3ccc(Cl)cc3)c2C(=O)N1Cc1cccnc1 [compound 72, 4-(4-chlorophenoxy)-2-(3-pyridylmethyl)-1H-isoindole-1,3 (2H)-dione] | 0.4 mg/kg | 32 nM | –
O=C1c2cc(Oc3ccc(Cl)cc3)ccc2CCN1Cc1cccnc1 [compound 84, 7-(4-chlorophenoxy)-3,4-dihydro-2-(3-pyridylmethyl)-1 (2H)-isoquinolinone] | – | 10 nM | –
O=C1c2cc(Oc3ccc(F)cc3)ccc2CN1Cc1cccnc1 [compound 125, 2,3-dihydro-6-(4-fluorophenoxy)-2-(3-pyridylmethyl)-1H-isoindole-1-one] | – | 36 nM | –
O=c1c2cc(Oc3ccc(Cl)cc3)ccc2ccn1Cc1cccnc1 [compound 128, 7-(4-chlorophenoxy)-2-(3-pyridylmethyl)-1 (2H)-isoquinolinone] | – | 18 nM | –
O=c1c2cc(Oc3ccc(Cl)cc3)ccc2ccn1-c1cccnc1 [compound 130, 7-(4-chlorophenoxy)-2-(3-pyridyl)-1 (2H)-isoquinolinone] | 0.018 mg/kg | – | –
O=c1c2cc(Oc3ccc(Cl)cc3)ccc2ncn1Cc1cccnc1 [compound 131, 6-(4-chlorophenoxy)-3-(3-pyridylmethyl)-4 (3H)-quinazolinone] | – | 31 nM | –
O=c1c2cc(Cl)ccc2nnn1CCCn1ccnc1 [formula (A)] | – | – | thromboxane synthetase enzyme inhibition [5]: inhibits thromboxane synthetase enzyme

Source: patent US5304556A, “Benza-triazinone derivatives” (Mitsubishi Kasei Corporation, priority 1991, dated 1994)
